# Source: US5889148A, “Antibiotic peptides” (priority 1995, dated 1999)
# Non-standard residues stand in square brackets, D forms with d. No end group written: not given here. Aib = CC(C)(N)C(=O)O
# What was measured:
# [1] = test system: Candida albicans (ATCC 36232); assay: MIC test, antifungal activity; type: cell-based
# Method: (§1) Antibacterial and antifungal activities of the peptides were determined by employing MIC test as follows:
# (§2) To determine antifungal activity, a test organism Candida albicans (ATCC 36232) was cultured on Sabouraud dextrose agar plate for 24 to 48 hrs, and colonies thus grown were suspended on Sabouraud dextrose medium(Gibco, USA) to have O.D.530 =0.5(3×10^6 cells) and further diluted with 100-fold to have O.D.530 =0.005(3×10^4 cells). 100 μl of Candida albicans culture thus prepared was pipetted on 96-well microplates which had already contained 100 μl of a serially diluted peptide solution.
# [2] = test system: Staphylococcus aureus (ATCC 6538); assay: MIC test, antibacterial activity; type: cell-based
# Method: as §1, §2
# Antibacterial activity of peptide was determined analogously as above, with an exception that Staphylococcus aureus (ATCC 6538) selected as a test organism was cultured on M-3 medium(Gibco, USA) at 37° C. and cell number was adjusted to 2×10^8 cells before 100-fold dilution.
# [3] = Table 3, addition of an amino acid to N-terminal of TED
# [4] = Table 2, modification of N-terminal residues of TED
# [5] = Table 1, peptide fragments of Tenecin
# [6] = Table 4, addition of an amino acid to N-terminal of TEDF
# [7] = Table 8, TEDFK derivatives of group 1
# [8] = Table 7, comparison with Ketoconazole (Example 3)
# [9] = Table 9, TEDFK derivatives of group 2
# [10] = Table 11, enantiomer, retro-inverso, D-amino acid derivatives of M22
# [11] = Table 6, substitution of Cys in TEDFK with Aib
# [12] = Table 10, TEDFK derivatives of group 3
compound,measurement,setting,value
"CC(=O)N1CCN(c2ccc(OCC3COC(Cn4ccnc4)(c4ccc(Cl)cc4Cl)O3)cc2)CC1 (centres unmarked) [Ketoconazole, reference compound]",MIC,"[1]; Candida albicans, ATCC36232, Table 7, comparison with Ketoconazole (Example 3), read-out: MIC against C. albicans",6 µg/mL
AYCNGKRVCVCR--NH2 (AYCNGKRVCVCR-NH2; cysteine pairing not given here) [TEDA],MIC S. aureus,[2]; [3],10 µg/mL
same,MIC C. albicans,[1]; [3],10 µg/mL
CNGKRVCVCR--NH2 (CNGKRVCVCR-NH2; cysteine pairing not given here) [TED15],MIC against C. albicans,[1]; [4],> 500 µg/mL
DAACAAHHCLFR--NH2 (DAACAAHHCLFR-NH2; cysteine pairing not given here) [TEA],MIC S. aureus,[2]; [5],> 500 µg/mL
same,MIC C. albicans,[1]; [5],> 100 µg/mL
DFYCNGKRVCVCR--NH2 (DFYCNGKRVCVCR-NH2; cysteine pairing not given here) [TEDFD],MIC S. aureus,[2]; [6],> 500 µg/mL
same,MIC C. albicans,[1]; [6],> 500 µg/mL
DYCNGKRVCVCR--NH2 (DYCNGKRVCVCR-NH2; cysteine pairing not given here) [TEDD],MIC S. aureus,[2]; [3],10 µg/mL
same,MIC C. albicans,[1]; [3],50 µg/mL
FFYCNGKRVCVCR--NH2 (FFYCNGKRVCVCR-NH2; cysteine pairing not given here) [TEDFF],MIC S. aureus,[2]; [6],5 µg/mL
same,MIC C. albicans,[1]; [6],3 µg/mL
FKYCNGKRVCVCR--NH2 (FKYCNGKRVCVCR-NH2; cysteine pairing not given here) [M3],MIC S. aureus,[2]; [7],12.7 µg/mL
same,MIC C. albicans,[1]; [7],12.5 µg/mL
FPYCNGKRVCVCR--NH2 (FPYCNGKRVCVCR-NH2; cysteine pairing not given here) [TEDFP],MIC S. aureus,[2]; [6],> 500 µg/mL
same,MIC C. albicans,[1]; [6],> 500 µg/mL
FYCNGKRVCVCR--NH2 (FYCNGKRVCVCR-NH2; cysteine pairing not given here) [TEDF],MIC S. aureus,[2]; [3],5 µg/mL
same,MIC S. aureus,[2]; [6],5 µg/mL
same,MIC C. albicans,[1]; [3],10 µg/mL
same,MIC C. albicans,[1]; [6],10 µg/mL
GKRVCVCR--NH2 (GKRVCVCR-NH2; cysteine pairing not given here) [TED11],MIC against C. albicans,[1]; [4],> 500 µg/mL
KCNGKRVCVCR--NH2 (KCNGKRVCVCR-NH2; cysteine pairing not given here) [TED18],MIC against C. albicans,[1]; [4],> 500 µg/mL
KFYCDGKRVCVCR--NH2 (KFYCDGKRVCVCR-NH2; cysteine pairing not given here) [M18],MIC S. aureus,[2]; [7],12.7 µg/mL
same,MIC C. albicans,[1]; [7],12.5 µg/mL
KFYCKGKRVCVCR--NH2 (KFYCKGKRVCVCR-NH2; cysteine pairing not given here) [TEDFK-7],MIC against C. albicans,"[1]; Table 5, modification of TEDFK",3 µg/mL
same,MIC against C. albicans,[1]; [8],3 µg/mL
KFYCNGKRICICR--NH2 (KFYCNGKRICICR-NH2; cysteine pairing not given here) [M13],MIC S. aureus,[2]; [7],6.35 µg/mL
same,MIC C. albicans,[1]; [7],6.25 µg/mL
KFYCNGKRVCVCD--NH2 (KFYCNGKRVCVCD-NH2; cysteine pairing not given here) [TEDFK-11],MIC against C. albicans,"[1]; Table 5, modification of TEDFK",5 µg/mL
same,MIC against C. albicans,[1]; [8],6 µg/mL
KFYCNGKRVCVCL--NH2 (KFYCNGKRVCVCL-NH2; cysteine pairing not given here) [TEDFK-10],MIC against C. albicans,"[1]; Table 5, modification of TEDFK",5 µg/mL
same,MIC against C. albicans,[1]; [8],6 µg/mL
KFYCNGKRVCVCR--NH2 [TEDFK-8] (KFYCNGKRVCVCR-NH2; cysteine pairing not given here),MIC against C. albicans,"[1]; Table 5, modification of TEDFK",5 µg/mL
same,MIC against C. albicans,[1]; [8],6 µg/mL
KFYCNGKRVCVCR--NH2 [TEDFK] (KFYCNGKRVCVCR-NH2; cysteine pairing not given here),MIC S. aureus,[2]; [6],5 µg/mL
same,MIC S. aureus,[2]; [7],6.25 µg/mL
same,MIC S. aureus,[2]; [9],6.25 µg/mL
same,MIC S. aureus,[2]; [10],6.25 µg/mL
same,MIC C. albicans,[1]; [6],3 µg/mL
same,MIC against C. albicans,"[1]; Table 5, modification of TEDFK",3 µg/mL
same,MIC against C. albicans,[1]; [11],3 µg/mL
same,MIC C. albicans,[1]; [7],6.25 µg/mL
same,MIC C. albicans,[1]; [9],6.25 µg/mL
same,MIC against C. albicans,[1]; [12],6.25 µg/mL
same,MIC C. albicans,[1]; [10],6.25 µg/mL
KFYCNGKRVCVCW--NH2 (KFYCNGKRVCVCW-NH2; cysteine pairing not given here) [M31],MIC S. aureus,[2]; [7],12.7 µg/mL
same,MIC C. albicans,[1]; [7],12.5 µg/mL
KFYCNGKRVCV[Aib]R-NH2 (cysteine pairing not given here) [TEDFK-3A],MIC against C. albicans,[1]; [11],20 µg/mL
same,MIC against C. albicans,[1]; [8],12 µg/mL
KFYCNGKRV[Aib]VCK-NH2 (cysteine pairing not given here) [M25],MIC S. aureus,[2]; [7],6.35 µg/mL
same,MIC C. albicans,[1]; [7],6.25 µg/mL
KFYCNGKRV[Aib]VCR-NH2 (cysteine pairing not given here) [TEDFK-2A],MIC against C. albicans,[1]; [11],5 µg/mL
same,MIC against C. albicans,[1]; [8],6 µg/mL
KFYCNGRVCVCR--NH2 (KFYCNGRVCVCR-NH2; cysteine pairing not given here) [TEDFK-2],MIC against C. albicans,"[1]; Table 5, modification of TEDFK",5 µg/mL
same,MIC against C. albicans,[1]; [8],6 µg/mL
KFYCNKKRVCVCR--NH2 (KFYCNKKRVCVCR-NH2; cysteine pairing not given here) [TEDFK-5],MIC against C. albicans,"[1]; Table 5, modification of TEDFK",5 µg/mL
same,MIC against C. albicans,[1]; [8],3 µg/mL
KFYCNKRVCVCR--NH2 (KFYCNKRVCVCR-NH2; cysteine pairing not given here) [TEDFK-1],MIC against C. albicans,"[1]; Table 5, modification of TEDFK",5 µg/mL
KFYCNLKRVCVCR--NH2 (KFYCNLKRVCVCR-NH2; cysteine pairing not given here) [TEDFK-4],MIC against C. albicans,"[1]; Table 5, modification of TEDFK",5 µg/mL
KFYCNPGPVCVCR--NH2 (KFYCNPGPVCVCR-NH2; cysteine pairing not given here) [TEDFK-9],MIC against C. albicans,"[1]; Table 5, modification of TEDFK",20 µg/mL
same,MIC against C. albicans,[1]; [8],12 µg/mL
KFYCNPKRVCVCR--NH2 (KFYCNPKRVCVCR-NH2; cysteine pairing not given here) [TEDFK-3],MIC against C. albicans,"[1]; Table 5, modification of TEDFK",5 µg/mL
same,MIC against C. albicans,[1]; [8],6 µg/mL
KFYCNWKRVCVCR--NH2 (KFYCNWKRVCVCR-NH2; cysteine pairing not given here) [M30],MIC S. aureus,[2]; [7],12.7 µg/mL
same,MIC C. albicans,[1]; [7],12.5 µg/mL
KFYCVGKRVCVCR--NH2 (KFYCVGKRVCVCR-NH2; cysteine pairing not given here) [TEDFK-6],MIC against C. albicans,"[1]; Table 5, modification of TEDFK",5 µg/mL
same,MIC against C. albicans,[1]; [8],6 µg/mL
KFY[Aib]KGKRVCVCR-NH2 (cysteine pairing not given here) [M17],MIC S. aureus,[2]; [7],6.35 µg/mL
same,MIC C. albicans,[1]; [7],6.25 µg/mL
KFY[Aib]KKVCVCK-NH2 (cysteine pairing not given here) [M8],MIC S. aureus,[2]; [7],3.16 µg/mL
same,MIC C. albicans,[1]; [7],3.12 µg/mL
KFY[Aib]NGKRVCVCR-NH2 (cysteine pairing not given here) [TEDFK-1A],MIC against C. albicans,[1]; [8],2 µg/mL
KGKRVCVCR--NH2 (KGKRVCVCR-NH2; cysteine pairing not given here) [TED12],MIC against C. albicans,[1]; [4],> 500 µg/mL
KKYCNGKRVCVCR--NH2 (KKYCNGKRVCVCR-NH2; cysteine pairing not given here) [M1],MIC S. aureus,[2]; [7],3.16 µg/mL
same,MIC C. albicans,[1]; [7],3.12 µg/mL
KKYCNKKCVCK--NH2 [M5] (KKYCNKKCVCK-NH2; cysteine pairing not given here),MIC S. aureus,[2]; [7],3.16 µg/mL
same,MIC C. albicans,[1]; [7],3.12 µg/mL
KKYCNKKCVCK--NH2 [M6] (KKYCNKKCVCK-NH2; cysteine pairing not given here),MIC S. aureus,[2]; [7],3.16 µg/mL
same,MIC C. albicans,[1]; [7],3.12 µg/mL
KKYCNXRVCVCR--NH2 [M4],MIC S. aureus,[2]; [7],3.16 µg/mL
same,MIC C. albicans,[1]; [7],3.12 µg/mL
KKYIKKVFVFk--NH2 [M22-7],MIC S. aureus,[2]; [10],3.11 µg/mL
same,MIC C. albicans,[1]; [10],3.12 µg/mL
KKYIVFVFK--NH2 (KKYIVFVFK-NH2) [M33],MIC against C. albicans,[1]; [12],3.12 µg/mL
KKYIkkVFVFK--NH2 [M22-27],MIC S. aureus,[2]; [10],3.17 µg/mL
same,MIC C. albicans,[1]; [10],3.11 µg/mL
KKyIKKVFVFK--NH2 [M22-26],MIC S. aureus,[2]; [10],3.16 µg/mL
same,MIC C. albicans,[1]; [10],3.15 µg/mL
KPYCNGKRVCVCR--NH2 (KPYCNGKRVCVCR-NH2; cysteine pairing not given here) [M2],MIC S. aureus,[2]; [7],6.35 µg/mL
same,MIC C. albicans,[1]; [7],6.25 µg/mL
KWYCNGKRVCVCR--NH2 (KWYCNGKRVCVCR-NH2; cysteine pairing not given here) [M26],MIC S. aureus,[2]; [7],6.35 µg/mL
same,MIC C. albicans,[1]; [7],6.25 µg/mL
KYCNGKRVCVCR--NH2 (KYCNGKRVCVCR-NH2; cysteine pairing not given here) [TEDK],MIC S. aureus,[2]; [3],5 µg/mL
same,MIC C. albicans,[1]; [3],5 µg/mL
KYCNGKRVCVCRK--NH2 (KYCNGKRVCVCRK-NH2; cysteine pairing not given here) [M16],MIC S. aureus,[2]; [7],6.35 µg/mL
same,MIC C. albicans,[1]; [7],6.25 µg/mL
LCNGKRVCVCR--NH2 (LCNGKRVCVCR-NH2; cysteine pairing not given here) [TED17],MIC against C. albicans,[1]; [4],100 µg/mL
LFYCNGKRVCVCR--NH2 (LFYCNGKRVCVCR-NH2; cysteine pairing not given here) [TEDFL],MIC S. aureus,[2]; [6],30 µg/mL
same,MIC C. albicans,[1]; [6],100 µg/mL
LSVEAKGVKLGGGYCNGKRVCVCR--NH2 (LSVEAKGVKLGGGYCNGKRVCVCR-NH2; cysteine pairing not given here) [TEQ],MIC S. aureus,[2]; [5],> 500 µg/mL
same,MIC C. albicans,[1]; [5],> 100 µg/mL
